Assays:
Experiment in all cases: relative viability (nuclei count vs DMSO), 5 days (fraction); higher = more cells survive
Linsitinib + Vorinostat = compound: C[C@]1(O)C[C@@H](c2nc(-c3ccc4ccc(-c5ccccc5)nc4c3)c3c(N)nccn32)C1 [Linsitinib] + O=C(CCCCCCC(=O)Nc1ccccc1)NO [Vorinostat] (partner 1 µM)
Outline: (§1)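 After 5 days of treatment, lung cancer cells in 1536-well plates were fixed and stained in a single step (final 0.05% Triton X-100, 1% formaldehyde, 1 ug/ml Hoechst) and their nuclei counted on 4× images. Treatment had been applied by pin tool the day after seeding as one drug alone or as a fixed anchor-drug dose with five library-drug doses (not always all listed) in √10 steps. Relative viability is the nuclei count of treated wells divided by that of vehicle wells, and values are medians of duplicate plates.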

Linsitinib + Pemetrexed = compound: C[C@]1(O)C[C@@H](c2nc(-c3ccc4ccc(-c5ccccc5)nc4c3)c3c(N)nccn32)C1 [Linsitinib] + Nc1nc2[nH]cc(CCc3ccc(C(=O)N[C@@H](CCC(=O)O)C(=O)O)cc3)c2c(=O)[nH]1 [Pemetrexed] (partner 0.2 µM)
Outline: as §1

Linsitinib + Lapatinib = compound: C[C@]1(O)C[C@@H](c2nc(-c3ccc4ccc(-c5ccccc5)nc4c3)c3c(N)nccn32)C1 [Linsitinib] + CS(=O)(=O)CCNCc1ccc(-c2ccc3ncnc(Nc4ccc(OCc5cccc(F)c5)c(Cl)c4)c3c2)o1 [Lapatinib] (partner 2 µM)
Outline: as §1

Ispinesib + Luminespib = compound: Cc1ccc(C(=O)N(CCCN)[C@@H](c2nc3cc(Cl)ccc3c(=O)n2Cc2ccccc2)C(C)C)cc1 [Ispinesib] + CCNC(=O)c1noc(-c2cc(C(C)C)c(O)cc2O)c1-c1ccc(CN2CCOCC2)cc1 [Luminespib] (partner 0.01 µM)
Outline: as §1

| Cell Line | relative viability (Linsitinib + Vorinostat; first compound 0.01 µM) | relative viability (Linsitinib + Vorinostat; first compound 0.03162 µM) | relative viability (Linsitinib + Vorinostat; first compound 0.1 µM) | relative viability (Linsitinib + Vorinostat; first compound 0.3162 µM) | relative viability (Linsitinib + Vorinostat; first compound 1 µM) | relative viability (Linsitinib + Pemetrexed; first compound 0.01 µM) | relative viability (Linsitinib + Pemetrexed; first compound 0.03162 µM) | relative viability (Linsitinib + Pemetrexed; first compound 0.1 µM) | relative viability (Linsitinib + Pemetrexed; first compound 0.3162 µM) | relative viability (Linsitinib + Pemetrexed; first compound 1 µM) | relative viability (Linsitinib + Lapatinib; first compound 0.01 µM) | relative viability (Linsitinib + Lapatinib; first compound 0.03162 µM) | relative viability (Linsitinib + Lapatinib; first compound 0.1 µM) | relative viability (Linsitinib + Lapatinib; first compound 0.3162 µM) | relative viability (Linsitinib + Lapatinib; first compound 1 µM) | relative viability (Ispinesib + Luminespib; first compound 0.001 µM) | relative viability (Ispinesib + Luminespib; first compound 0.003162 µM) | relative viability (Ispinesib + Luminespib; first compound 0.01 µM) | relative viability (Ispinesib + Luminespib; first compound 0.03162 µM) | relative viability (Ispinesib + Luminespib; first compound 0.1 µM) |
| --- | --- | --- | --- | --- | --- | --- | --- | --- | --- | --- | --- | --- | --- | --- | --- | --- | --- | --- | --- | --- |
| NCI-H1437 | 0.815 | 0.709 | 0.851 | 0.618 | 0.626 | 0.317 | 0.247 | 0.307 | 0.288 | 0.275 | 0.758 | 0.787 | 0.811 | 0.551 | 0.715 | 1.16 | 1.22 | 1.26 | 1.22 | 0.994 |
| NCI-H3122 | 0.966 | 0.921 | 0.98 |  | 0.702 | 0.18 | 0.177 | 0.212 | 0.184 | 0.196 | 1.04 | 1.06 | 0.982 | 0.737 | 1.12 | 0.105 | 0.12 | 0.0892 | 0.0855 | 0.0889 |
| NCI-H1734 | 0.865 | 0.727 | 0.877 | 0.554 | 0.541 | 0.413 | 0.324 | 0.404 | 0.417 | 0.408 | 1.05 | 1.15 | 1.05 | 0.714 | 0.778 | 0.179 | 0.0914 | 0.177 | 0.192 | 0.157 |
| HCC-15 | 0.822 | 0.752 | 0.763 | 0.633 | 0.705 | 0.215 | 0.199 | 0.209 | 0.191 | 0.213 | 0.919 | 0.807 | 0.883 | 0.2 | 0.612 | 0.286 | 0.322 | 0.459 | 0.229 | 0.227 |
| NCI-H2405 | 1.04 | 0.907 | 0.973 | 0.698 | 0.487 | 1.08 | 1.09 | 1.06 | 0.787 | 0.762 | 1.12 | 1.04 | 1.07 | 0.887 | 0.735 | 0.651 | 0.733 | 0.677 | 0.637 | 0.52 |
| NCI-H1993 | 0.936 | 0.737 | 0.781 | 0.286 | 0.644 | 0.59 | 0.621 | 0.565 | 0.449 | 0.404 | 0.784 | 0.793 | 0.76 | 0.498 | 0.684 | 0.801 | 0.45 | 1.01 | 0.821 | 0.634 |
| NCI-H1650 | 0.51 | 0.505 | 0.621 | 0.386 | 0.377 | 0.301 | 0.279 | 0.379 | 0.334 | 0.308 | 0.8 | 0.84 | 0.777 | 0.164 | 0.481 | 0.182 | 0.185 | 0.217 | 0.181 | 0.198 |
| NCI-H460 | 0.694 | 0.644 | 0.692 |  | 0.601 | 0.0547 | 0.0538 | 0.065 |  | 0.0715 | 1 | 0.784 | 1.03 | 0.699 | 0.868 | 0.022 | 0.0333 | 0.0413 | 0.0267 | 0.0268 |
